Consider one compound from PMC4474554 (PLoS ONE, 2015).

The subject of the assay is EGFR kinases (all the variants tested). Description: In vitro binding assay (ATP beads), all variant EGFR kinases. Conditions: at a concentration of 1000 μM.

The structures appear in SMILES notation.

For the compound `Nc1ncnc2c1ncn2[C@@H]1O[C@H](COP(=O)(O)OP(=O)(O)OP(=O)(O)O)[C@@H](O)[C@H]1O` [ATP], the “binding of exogenous ATP to EGFR kinases” value is given as “weakly bound”.
